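96-well plates; 48 h exposure; 5 concentrations. Endpoints by linear interpolation between flanking doses. Not reached: highest tested concentration assigned. GI50 = concentration required for 50% inhibition of growth.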 Activity calls are given as the source filed them. Cut-off read from the data, not from the text of the source: active = GI50 up to about 1.1 µM and inactive = higher.
Tests used:
Experiment in all cases: NCI anticancer screen, dose series, 48 h
HL-60 = system: HL-60
SK-MEL-5 = system: SK-MEL-5
A549 = system: A549
UO-31 = system: UO-31
OVCAR-5 = system: OVCAR-5
OVCAR-4 = system: OVCAR-4
MDA-N = system: MDA-N
HOP-62 = system: HOP-62
HOP-92 = system: HOP-92
SW-620 = system: SW-620
NCI/ADR-RES = system: NCI/ADR-RES
SR = system: SR
SK-MEL-2 = system: SK-MEL-2
UACC-257 = system: UACC-257
HCT-15 = system: HCT-15
U-251 = system: U-251
OVCAR-3 = system: OVCAR-3
SF-268 = system: SF-268
COLO 205 = system: COLO 205
NCI-H226 = system: NCI-H226
IGROV-1 = system: IGROV-1
A498 = system: A498
MCF7 = system: MCF7
Malme-3M = system: Malme-3M
MOLT-4 = system: MOLT-4
SNB-19 = system: SNB-19
BT-549 = system: BT-549
SN12C = system: SN12C
CAKI-1 = system: CAKI-1
MDA-MB-231 = system: MDA-MB-231
RXF 393 = system: RXF 393
DU-145 = system: DU-145
Hs-578T = system: Hs-578T
TK-10 = system: TK-10
NCI-H522 = system: NCI-H522
UACC-62 = system: UACC-62
PC-3 = system: PC-3
CCRF-CEM = system: CCRF-CEM
SF-539 = system: SF-539
HCC 2998 = system: HCC 2998
OVCAR-8 = system: OVCAR-8
KM12 = system: KM12
MDA-MB-435 = system: MDA-MB-435
SNB-75 = system: SNB-75
EKVX = system: EKVX
RPMI-8226 = system: RPMI-8226
786-0 = system: 786-0
M14 = system: M14
HCT-116 = system: HCT-116
NCI-H460 = system: NCI-H460
K562 = system: K562
NCI-H23 = system: NCI-H23
SK-OV-3 = system: SK-OV-3
ACHN = system: ACHN
HT-29 = system: HT-29
SF-295 = system: SF-295
LOX IMVI = system: LOX IMVI
SK-MEL-28 = system: SK-MEL-28

Measured: GI50

C/C(=C(/C)c1ccc(O)cc1)c1ccc(O)cc1 [DIMETHYLSTILBESTROL]
inactive: HL-60 41.4 µM | SK-MEL-5 19.5 µM | A549 71.3 µM | UO-31 70.8 µM | OVCAR-5 > 100 µM | OVCAR-4 > 10 µM | MDA-N 31.8 µM | HOP-62 94 µM | HOP-92 27.4 µM | SW-620 > 100 µM | NCI/ADR-RES 45.5 µM | SR 40.1 µM | SK-MEL-2 10 µM | UACC-257 43.4 µM | U-251 67.3 µM | OVCAR-3 46.6 µM | SF-268 > 100 µM | COLO 205 > 100 µM | NCI-H226 36.7 µM | IGROV-1 > 100 µM | A498 54.6 µM | MCF7 39.5 µM | Malme-3M 60.8 µM | MOLT-4 45.5 µM | SNB-19 > 100 µM | BT-549 12.6 µM | SN12C 58.6 µM | CAKI-1 37 µM | MDA-MB-231 > 100 µM | RXF 393 56.8 µM | DU-145 87.3 µM | Hs-578T 24.5 µM | TK-10 89.5 µM | NCI-H522 > 100 µM | UACC-62 23.7 µM | PC-3 41.3 µM | CCRF-CEM 42.3 µM | SF-539 32.3 µM | HCC 2998 > 100 µM | OVCAR-8 36.1 µM | KM12 62.7 µM | MDA-MB-435 37.9 µM | SNB-75 39.2 µM | EKVX 8.95 µM | RPMI-8226 34.9 µM | 786-0 61.9 µM | M14 45.3 µM | HCT-116 83.2 µM | NCI-H460 49.8 µM | K562 46 µM | NCI-H23 43.6 µM | SK-OV-3 > 100 µM | ACHN 28.8 µM | HT-29 48.8 µM
61.1 µM: HCT-15

CC1(C)CC(=O)c2c([nH]c(=S)c(C#N)c2-c2ccc(Br)cc2)C1
45.8 µM: HCT-15
inactive: HL-60 43.9 µM | SK-MEL-5 46.9 µM | A549 56.2 µM | UO-31 45.9 µM | SF-295 35.7 µM | OVCAR-5 > 100 µM | OVCAR-4 34.4 µM | MDA-N 70.5 µM | HOP-62 41.7 µM | HOP-92 17.3 µM | SW-620 46.9 µM | NCI/ADR-RES > 100 µM | SR 22.8 µM | SK-MEL-2 24.9 µM | UACC-257 52.2 µM | U-251 35.6 µM | OVCAR-3 30.7 µM | SF-268 55.2 µM | COLO 205 > 10 µM | NCI-H226 46.8 µM | IGROV-1 62.5 µM | A498 54 µM | MCF7 40.7 µM | Malme-3M 60.7 µM | SNB-19 45.5 µM | BT-549 > 100 µM | SN12C 48.9 µM | CAKI-1 20 µM | MDA-MB-231 92.5 µM | RXF 393 33.7 µM | DU-145 61 µM | LOX IMVI 57.5 µM | Hs-578T 29 µM | TK-10 81.8 µM | NCI-H522 24.2 µM | UACC-62 32.7 µM | PC-3 30.4 µM | CCRF-CEM 5.85 µM | SF-539 67.5 µM | HCC 2998 35.8 µM | OVCAR-8 49.9 µM | MDA-MB-435 51.5 µM | SNB-75 > 100 µM | EKVX > 100 µM | 786-0 78.5 µM | M14 43 µM | HCT-116 58.2 µM | NCI-H460 40.7 µM | K562 43.4 µM | NCI-H23 51.1 µM | SK-OV-3 > 100 µM | SK-MEL-28 44.1 µM | ACHN 66.1 µM | HT-29 40.3 µM

O=C(CN1CCOCC1)c1ccc2c(c1)oc(=O)n2CCN1CCCCC1
inactive: HL-60 > 100 µM | SK-MEL-5 > 100 µM | UO-31 > 100 µM | SF-295 > 100 µM | OVCAR-5 > 100 µM | MDA-N > 100 µM | HOP-62 > 100 µM | SW-620 > 100 µM | NCI/ADR-RES > 100 µM | SR > 100 µM | SK-MEL-2 > 100 µM | UACC-257 > 100 µM | U-251 > 100 µM | OVCAR-3 > 100 µM | SF-268 48.3 µM | COLO 205 > 100 µM | NCI-H226 > 100 µM | IGROV-1 > 100 µM | A498 > 100 µM | MCF7 > 100 µM | Malme-3M > 100 µM | MOLT-4 > 100 µM | SNB-19 > 100 µM | BT-549 > 100 µM | SN12C > 100 µM | CAKI-1 > 100 µM | MDA-MB-231 > 100 µM | RXF 393 > 100 µM | DU-145 > 100 µM | LOX IMVI > 100 µM | Hs-578T 7.8 µM | TK-10 > 100 µM | UACC-62 > 100 µM | PC-3 > 100 µM | CCRF-CEM > 100 µM | SF-539 > 100 µM | OVCAR-8 > 100 µM | KM12 > 100 µM | MDA-MB-435 > 100 µM | EKVX 82.2 µM | RPMI-8226 > 100 µM | 786-0 > 100 µM | M14 > 100 µM | HCT-116 > 100 µM | NCI-H460 > 100 µM | K562 > 100 µM | NCI-H23 > 100 µM | SK-OV-3 > 100 µM | SK-MEL-28 > 100 µM | ACHN > 100 µM | HT-29 > 100 µM
> 100 µM: HCT-15
active: SNB-75 0.179 µM

Reference: ChEMBL document CHEMBL1201862, “PubChem BioAssay data set” (2004)
